Laboratory results published in the NIST ThermoML archive (doi:10.1021/acs.jced.7b00578).
“And” between values parts separate entries of the source, which are not always exact repeats. Equal values may be shown once. Numbers after ± are expanded uncertainties.

Assays:
[1] = Liquid, Closed cell (Static) method
[2] = molar heat capacity at constant pressure; details: 101.33 kPa, Liquid, Extra sensitive DSC

SMILES: CC1COC(=O)O1 (stereo unspecified) [4-methyl-1,3-dioxolan-2-one]
- vapor or sublimation pressure ([1]; 278.19 K): 0.00132 ± 0.00013 kPa
- vapor or sublimation pressure ([1]; 278.37 K): 0.00133 ± 0.00013 kPa
- vapor or sublimation pressure ([1]; 278.39 K): 0.00133 ± 0.00013 kPa
- vapor or sublimation pressure ([1]; 283.31 K): 0.00214 ± 0.00015 kPa
- vapor or sublimation pressure ([1]; 283.32 K): 0.00214 ± 0.00015 kPa
- vapor or sublimation pressure ([1]; 288.19 K): 0.00332 ± 0.00017 kPa
- vapor or sublimation pressure ([1]; 288.2 K): 0.00333 ± 0.00017 kPa
- vapor or sublimation pressure ([1]; 288.22 K): 0.00332 ± 0.00017 kPa
- vapor or sublimation pressure ([1]; 293.12 K): 0.00511 ± 0.00022 kPa
- vapor or sublimation pressure ([1]; 293.14 K): 0.00512 ± 0.00022 kPa
- vapor or sublimation pressure ([1]; 293.15 K): 0.00514 ± 0.00023 kPa and 0.00511 ± 0.00022 kPa
- vapor or sublimation pressure ([1]; 298.1 K): 0.00778 ± 0.00032 kPa
- vapor or sublimation pressure ([1]; 298.11 K): 0.00778 ± 0.00032 kPa
- vapor or sublimation pressure ([1]; 298.12 K): 0.00777 ± 0.00032 kPa
- vapor or sublimation pressure ([1]; 303.01 K): 0.01158 ± 0.00046 kPa and 0.01155 ± 0.00046 kPa
- vapor or sublimation pressure ([1]; 303.03 K): 0.01156 ± 0.00046 kPa
- vapor or sublimation pressure ([1]; 307.94 K): 0.01701 ± 0.00058 kPa and 0.01698 ± 0.00058 kPa
- vapor or sublimation pressure ([1]; 307.95 K): 0.01694 ± 0.00057 kPa and 0.01696 ± 0.00057 kPa
- vapor or sublimation pressure ([1]; 312.97 K): 0.0247 ± 0.00069 kPa and 0.02472 ± 0.00069 kPa
- vapor or sublimation pressure ([1]; 312.98 K): 0.02474 ± 0.00069 kPa
- vapor or sublimation pressure ([1]; 312.99 K): 0.02479 ± 0.0007 kPa
- vapor or sublimation pressure ([1]; 317.91 K): 0.03529 ± 0.00086 kPa
- vapor or sublimation pressure ([1]; 317.92 K): 0.0353 ± 0.00086 kPa and 0.03533 ± 0.00086 kPa and 0.03536 ± 0.00086 kPa
- vapor or sublimation pressure ([1]; 322.9 K): 0.04993 ± 0.0011 kPa
- vapor or sublimation pressure ([1]; 322.92 K): 0.04996 ± 0.0011 kPa and 0.05002 ± 0.0011 kPa and 0.05 ± 0.0011 kPa
- vapor or sublimation pressure ([1]; 327.8 K): 0.06936 ± 0.0014 kPa
- vapor or sublimation pressure ([1]; 327.81 K): 0.06935 ± 0.0014 kPa and 0.06932 ± 0.0014 kPa and 0.06938 ± 0.0014 kPa
- vapor or sublimation pressure ([1]; 332.89 K): 0.09634 ± 0.0019 kPa and 0.09635 ± 0.0019 kPa
- vapor or sublimation pressure ([1]; 332.91 K): 0.09643 ± 0.0019 kPa
- vapor or sublimation pressure ([1]; 332.92 K): 0.09645 ± 0.0019 kPa
- vapor or sublimation pressure ([1]; 337.83 K): 0.1311 ± 0.0023 kPa
- vapor or sublimation pressure ([1]; 337.84 K): 0.1311 ± 0.0023 kPa and 0.1312 ± 0.0023 kPa
- vapor or sublimation pressure ([1]; 337.85 K): 0.1312 ± 0.0023 kPa
- vapor or sublimation pressure ([1]; 342.82 K): 0.177 ± 0.0028 kPa
- vapor or sublimation pressure ([1]; 342.83 K): 0.1772 ± 0.0028 kPa
- vapor or sublimation pressure ([1]; 342.84 K): 0.1773 ± 0.0028 kPa and 0.1772 ± 0.0028 kPa
- vapor or sublimation pressure ([1]; 347.69 K): 0.2353 ± 0.0035 kPa
- vapor or sublimation pressure ([1]; 347.7 K): 0.2354 ± 0.0035 kPa
- vapor or sublimation pressure ([1]; 352.55 K): 0.3096 ± 0.0044 kPa
- vapor or sublimation pressure ([1]; 352.58 K): 0.3102 ± 0.0044 kPa
- vapor or sublimation pressure ([1]; 352.59 K): 0.3103 ± 0.0044 kPa
- vapor or sublimation pressure ([1]; 357.59 K): 0.4078 ± 0.0056 kPa
- vapor or sublimation pressure ([1]; 357.6 K): 0.4079 ± 0.0056 kPa
- vapor or sublimation pressure ([1]; 362.51 K): 0.529 ± 0.0071 kPa
- vapor or sublimation pressure ([1]; 362.53 K): 0.5293 ± 0.0071 kPa and 0.5294 ± 0.0071 kPa and 0.5295 ± 0.0071 kPa
- molar heat capacity at constant pressure ([2]; 262.22 K): 162.94 ± 6.3 J/K/mol
- molar heat capacity at constant pressure ([2]; 265 K): 163.34 ± 6.3 J/K/mol
- molar heat capacity at constant pressure ([2]; 270 K): 164.16 ± 6.4 J/K/mol
- molar heat capacity at constant pressure ([2]; 275 K): 164.98 ± 6.4 J/K/mol
- molar heat capacity at constant pressure ([2]; 280 K): 165.79 ± 6.4 J/K/mol
- molar heat capacity at constant pressure ([2]; 285 K): 166.61 ± 6.5 J/K/mol
- molar heat capacity at constant pressure ([2]; 290 K): 167.53 ± 6.5 J/K/mol
- molar heat capacity at constant pressure ([2]; 295 K): 168.45 ± 6.5 J/K/mol
- molar heat capacity at constant pressure ([2]; 300 K): 169.37 ± 6.6 J/K/mol
- molar heat capacity at constant pressure ([2]; 305 K): 170.29 ± 6.6 J/K/mol
- molar heat capacity at constant pressure ([2]; 310 K): 171.2 ± 6.6 J/K/mol
- molar heat capacity at constant pressure ([2]; 315 K): 172.23 ± 6.7 J/K/mol
- molar heat capacity at constant pressure ([2]; 320 K): 173.14 ± 6.7 J/K/mol
- molar heat capacity at constant pressure ([2]; 325 K): 174.17 ± 6.8 J/K/mol
- molar heat capacity at constant pressure ([2]; 330 K): 175.19 ± 6.8 J/K/mol
- molar heat capacity at constant pressure ([2]; 335 K): 176.11 ± 6.8 J/K/mol
- molar heat capacity at constant pressure ([2]; 340 K): 177.13 ± 6.9 J/K/mol
- molar heat capacity at constant pressure ([2]; 345 K): 178.15 ± 6.9 J/K/mol
- molar heat capacity at constant pressure ([2]; 350 K): 179.17 ± 6.9 J/K/mol
- molar heat capacity at constant pressure ([2]; 355 K): 180.09 ± 7 J/K/mol
- molar heat capacity at constant pressure ([2]; 357.99 K): 180.7 ± 7 J/K/mol
